Measurements as given in patent publication US6569461B1, “Dihydroxy open-acid and salts of HMG-CoA reductase inhibitors” (Merck & Co., Inc., priority 1999, dated 2003).

Assays:
[1] = Plasma total and active HMG-CoA reductase inhibitory activity (enzymatic assay) in open, randomized, four-period crossover study with or without itraconazole; details: human, in vivo
Description: (§1) Intraduodenal administration was accomplished via a nasoduodenal tube placed under fluoroscopic guidance by an experienced gastroenterologist just prior to dosing and removed following the 1-hr postdose measurements.
(§2) All calculations were based on designated sampling times or actual sampling times when they differed from the designated times by more than 10 minutes.

[2] = human, in vivo
Description: as §1, §2

AUC, Active Inhibitors [1]: 54.1 ± 28.5 ng eq·hr/mL | Cmax, Active Inhibitors [1]: 5.7 ± 3.0 ng eq/mL | change by itraconazole pretreatment in AUC and Cmax of HMG-CoA reductase inhibitory activity (total or active) ([1]; male): 1.3-1.5 fold | effect of itraconazole on apparent t1/2 values [2]: essentially unchanged | effect of itraconazole measured as the unchanged drug ([2]; male): 1.5 fold
SMILES: CCC(C)(C)C(=O)O[C@H]1C[C@@H](C)C=C2C=C[C@H](C)[C@H](CC[C@@H](O)C[C@@H](O)CC(=O)O)[C@H]21 [SVA, dihydroxy open acid simvastatin]
